# Residue numbers refer to the chain shown, from its start.
# Legend:
# [1] = molecular target: T1, 5-HT1AR Q97^2.65A (Homo sapiens, UniProt P08908, Q97A); test: Radioligand competition, displacement of [3H]WAY100635; format: binding; details: 5-HT1AR Q97A; HEK 293T membranes; read-out: Ki [nM ± SEM]
# T1 sequence (P08908 1-422 Q97A): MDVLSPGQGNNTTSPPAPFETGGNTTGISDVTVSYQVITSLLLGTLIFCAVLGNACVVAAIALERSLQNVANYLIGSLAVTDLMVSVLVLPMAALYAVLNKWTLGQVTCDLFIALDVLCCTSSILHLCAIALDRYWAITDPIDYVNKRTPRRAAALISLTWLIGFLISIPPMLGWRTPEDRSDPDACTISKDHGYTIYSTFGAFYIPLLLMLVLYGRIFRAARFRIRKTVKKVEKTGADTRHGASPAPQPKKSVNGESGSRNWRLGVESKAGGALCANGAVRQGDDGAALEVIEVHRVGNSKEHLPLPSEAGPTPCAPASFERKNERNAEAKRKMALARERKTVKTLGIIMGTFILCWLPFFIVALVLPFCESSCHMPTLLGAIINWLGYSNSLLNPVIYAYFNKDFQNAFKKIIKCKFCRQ
# [2] = molecular target: T2, 5-HT1AR F112^3.28W + M92^2.60F (Homo sapiens, UniProt P08908, F112W/M92F); test: as above; format: binding; details: 5-HT1AR F112W + M92F; HEK 293T membranes; read-out: Ki [nM ± SEM]
# T2 sequence (P08908 1-422 M92F/F112W): T1 sequence (P08908 1-422 Q97A) with M92F, A97Q, F112W
# [3] = molecular target: T2, 5-HT1AR F112^3.28W + M92^2.60F; test: GloSensor cAMP accumulation in HEK293AΔGi/o; format: cell-based; details: read-out: Emax [% ± SEM], cAMP accumulation
# [4] = molecular target: T3, 5-HT1AR + Gαi2 (Homo sapiens, UniProt P08908); test: GloSensor cAMP in HEK293AΔGi/o co-transfected with Gαi2; format: cell-based
# T3 construct: host or cells: HEK293AΔGi/o
# T3 sequence (P08908 whole entry): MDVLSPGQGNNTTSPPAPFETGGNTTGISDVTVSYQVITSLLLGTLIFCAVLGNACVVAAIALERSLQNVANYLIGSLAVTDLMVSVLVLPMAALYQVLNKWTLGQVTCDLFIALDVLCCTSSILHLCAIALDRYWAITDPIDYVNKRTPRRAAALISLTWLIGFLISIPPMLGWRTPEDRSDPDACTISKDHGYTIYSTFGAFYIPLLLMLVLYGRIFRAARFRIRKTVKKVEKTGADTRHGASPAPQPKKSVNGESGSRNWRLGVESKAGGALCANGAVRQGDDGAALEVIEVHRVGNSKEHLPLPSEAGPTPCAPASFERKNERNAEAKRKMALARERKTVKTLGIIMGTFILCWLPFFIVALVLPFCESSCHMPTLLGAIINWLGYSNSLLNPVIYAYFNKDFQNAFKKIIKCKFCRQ
# T3 sequence (P04899 2-355 partner limits assumed): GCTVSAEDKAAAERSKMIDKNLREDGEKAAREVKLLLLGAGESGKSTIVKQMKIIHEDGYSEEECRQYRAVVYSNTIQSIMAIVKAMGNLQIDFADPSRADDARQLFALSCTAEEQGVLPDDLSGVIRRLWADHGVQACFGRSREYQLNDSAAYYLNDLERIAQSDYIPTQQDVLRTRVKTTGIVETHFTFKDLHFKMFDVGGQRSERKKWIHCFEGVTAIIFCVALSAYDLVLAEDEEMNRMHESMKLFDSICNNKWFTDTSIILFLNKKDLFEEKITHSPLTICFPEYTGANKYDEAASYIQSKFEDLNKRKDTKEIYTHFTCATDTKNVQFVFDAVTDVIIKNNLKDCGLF
# [5] = In vivo pharmacokinetic studies; details: mouse, CSF, ip; male C57BL/6 mice, 10 mg/kg i.p.
# [6] = molecular target: T4, 5-HT1AR + Gαi1 (Homo sapiens, UniProt P08908)
# T4 sequence (P08908 whole entry): as the sequence (P08908 whole entry) above
# T4 sequence (P63096 2-354 partner limits assumed): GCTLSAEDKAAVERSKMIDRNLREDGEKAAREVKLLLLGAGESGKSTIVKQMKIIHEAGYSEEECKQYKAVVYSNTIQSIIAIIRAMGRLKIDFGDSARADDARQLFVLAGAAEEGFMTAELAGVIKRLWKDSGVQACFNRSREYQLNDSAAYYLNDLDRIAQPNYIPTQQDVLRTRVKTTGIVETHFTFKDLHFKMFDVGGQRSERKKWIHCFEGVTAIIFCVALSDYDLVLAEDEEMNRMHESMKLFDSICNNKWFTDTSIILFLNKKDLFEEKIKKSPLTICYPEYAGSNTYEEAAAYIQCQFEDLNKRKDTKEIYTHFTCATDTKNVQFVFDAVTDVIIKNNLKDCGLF
# [7] = test system: 5-HT1AR + Gαi1
# [8] = molecular target: T4, 5-HT1AR + Gαi1; test: cell-based
# [9] = molecular target: T5, 5-HT1AR (Homo sapiens, UniProt P08908); test: cell-based
# T5 sequence (P08908 1-422): T1 sequence (P08908 1-422 Q97A) with A97Q
# [10] = molecular target: 5-HT1ER (Homo sapiens, UniProt P28566); test: BRET Gαi1 activation
# [11] = molecular target: muscarinic M2 (Homo sapiens, UniProt P08172); test: Radioligand displacement, [3H]NMS
# muscarinic M2, sequence (P08172 whole entry): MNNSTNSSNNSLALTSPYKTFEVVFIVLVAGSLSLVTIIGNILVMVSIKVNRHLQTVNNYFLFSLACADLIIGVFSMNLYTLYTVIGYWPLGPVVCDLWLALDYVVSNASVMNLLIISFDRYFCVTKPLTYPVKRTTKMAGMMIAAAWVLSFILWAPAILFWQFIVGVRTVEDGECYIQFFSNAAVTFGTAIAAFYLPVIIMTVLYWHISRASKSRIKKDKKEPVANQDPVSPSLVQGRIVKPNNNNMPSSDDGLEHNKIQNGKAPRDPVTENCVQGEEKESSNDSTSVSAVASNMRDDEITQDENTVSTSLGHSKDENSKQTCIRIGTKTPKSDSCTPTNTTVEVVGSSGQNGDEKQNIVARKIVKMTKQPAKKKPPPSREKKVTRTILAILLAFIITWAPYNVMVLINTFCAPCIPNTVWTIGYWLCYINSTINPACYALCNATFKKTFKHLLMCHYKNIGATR
# [12] = molecular target: muscarinic M3 (Homo sapiens, UniProt P20309); test: Radioligand displacement, [3H]NMS
# muscarinic M3, sequence (P20309 whole entry): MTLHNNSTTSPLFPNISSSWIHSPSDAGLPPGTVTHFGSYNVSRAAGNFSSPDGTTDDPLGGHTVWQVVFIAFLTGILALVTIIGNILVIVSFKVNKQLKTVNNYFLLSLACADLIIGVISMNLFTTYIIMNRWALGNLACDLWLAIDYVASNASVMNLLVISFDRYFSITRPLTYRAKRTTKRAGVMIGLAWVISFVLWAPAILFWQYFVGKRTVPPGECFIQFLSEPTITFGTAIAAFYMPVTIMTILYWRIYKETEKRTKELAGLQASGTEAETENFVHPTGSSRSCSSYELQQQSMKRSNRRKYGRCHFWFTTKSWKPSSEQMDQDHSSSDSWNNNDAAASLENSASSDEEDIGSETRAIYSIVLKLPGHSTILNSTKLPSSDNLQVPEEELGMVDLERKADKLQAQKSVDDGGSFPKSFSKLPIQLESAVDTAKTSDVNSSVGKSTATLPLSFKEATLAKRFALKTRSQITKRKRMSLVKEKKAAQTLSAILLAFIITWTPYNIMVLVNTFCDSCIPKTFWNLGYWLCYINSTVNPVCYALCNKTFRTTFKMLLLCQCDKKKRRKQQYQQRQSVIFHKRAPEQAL
# [13] = molecular target: orexin OX2 (Homo sapiens, UniProt O43614); test: Radioligand displacement, [3H]EMPA
# orexin OX2, sequence (O43614 whole entry): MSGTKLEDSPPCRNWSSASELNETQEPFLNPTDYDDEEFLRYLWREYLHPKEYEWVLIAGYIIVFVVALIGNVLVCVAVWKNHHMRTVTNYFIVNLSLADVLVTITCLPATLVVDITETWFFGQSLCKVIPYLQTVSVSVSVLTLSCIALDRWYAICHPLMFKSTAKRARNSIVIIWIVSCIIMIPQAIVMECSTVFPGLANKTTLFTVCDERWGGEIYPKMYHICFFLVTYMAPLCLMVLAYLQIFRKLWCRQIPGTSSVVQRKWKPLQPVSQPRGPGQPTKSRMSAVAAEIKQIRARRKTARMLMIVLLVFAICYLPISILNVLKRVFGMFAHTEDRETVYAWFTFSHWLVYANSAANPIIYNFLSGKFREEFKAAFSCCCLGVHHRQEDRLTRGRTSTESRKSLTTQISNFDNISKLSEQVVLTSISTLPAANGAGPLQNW
# [14] = molecular target: adrenergic α2A (Homo sapiens, UniProt P08913); test: Radioligand displacement, [3H]RX821002
# adrenergic α2A, sequence (P08913 whole entry): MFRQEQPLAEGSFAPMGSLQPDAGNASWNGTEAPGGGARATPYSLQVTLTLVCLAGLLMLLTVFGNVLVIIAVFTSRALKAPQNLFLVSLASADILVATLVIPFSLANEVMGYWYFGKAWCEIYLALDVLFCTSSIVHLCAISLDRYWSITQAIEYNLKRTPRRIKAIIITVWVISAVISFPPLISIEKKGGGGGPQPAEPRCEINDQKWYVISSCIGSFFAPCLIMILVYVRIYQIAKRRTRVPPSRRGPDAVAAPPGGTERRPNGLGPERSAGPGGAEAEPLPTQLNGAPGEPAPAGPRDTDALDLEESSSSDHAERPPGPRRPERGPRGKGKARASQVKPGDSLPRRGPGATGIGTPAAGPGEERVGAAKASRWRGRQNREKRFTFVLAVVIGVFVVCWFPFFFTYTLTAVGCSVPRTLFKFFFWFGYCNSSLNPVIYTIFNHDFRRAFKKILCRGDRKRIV
# [15] = molecular target: adrenergic α2B (Homo sapiens, UniProt P18089); test: Radioligand displacement, [3H]RX821002
# adrenergic α2B, sequence (P18089 whole entry): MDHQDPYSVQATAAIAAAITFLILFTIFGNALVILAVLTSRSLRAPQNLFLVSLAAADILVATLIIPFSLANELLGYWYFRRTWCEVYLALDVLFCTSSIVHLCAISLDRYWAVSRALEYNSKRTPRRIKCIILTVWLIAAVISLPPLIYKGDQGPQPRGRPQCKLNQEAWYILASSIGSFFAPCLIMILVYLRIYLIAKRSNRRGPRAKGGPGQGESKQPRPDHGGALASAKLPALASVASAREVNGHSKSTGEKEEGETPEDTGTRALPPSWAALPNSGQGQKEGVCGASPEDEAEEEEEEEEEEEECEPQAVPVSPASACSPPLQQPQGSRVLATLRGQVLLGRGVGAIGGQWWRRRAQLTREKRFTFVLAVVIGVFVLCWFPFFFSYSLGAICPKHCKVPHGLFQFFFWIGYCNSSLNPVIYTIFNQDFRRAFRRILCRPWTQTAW
# [16] = molecular target: adrenergic β1 (Homo sapiens, UniProt P08588); test: Radioligand displacement, [3H]CGP12177
# adrenergic β1, sequence (P08588 whole entry): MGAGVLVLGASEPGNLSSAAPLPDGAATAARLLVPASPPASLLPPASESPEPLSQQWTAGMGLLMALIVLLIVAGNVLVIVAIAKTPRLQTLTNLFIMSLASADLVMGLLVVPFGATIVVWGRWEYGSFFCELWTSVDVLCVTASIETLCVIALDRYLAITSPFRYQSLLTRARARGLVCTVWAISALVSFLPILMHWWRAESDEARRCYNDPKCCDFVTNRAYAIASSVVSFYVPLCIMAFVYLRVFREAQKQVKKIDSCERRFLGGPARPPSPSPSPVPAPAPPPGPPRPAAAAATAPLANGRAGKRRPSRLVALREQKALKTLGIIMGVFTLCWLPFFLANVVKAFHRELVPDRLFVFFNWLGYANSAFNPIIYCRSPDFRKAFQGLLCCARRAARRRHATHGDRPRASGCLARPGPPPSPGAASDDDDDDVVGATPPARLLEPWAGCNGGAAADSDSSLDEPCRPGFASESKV
# [17] = molecular target: neurotensin NTS2 (Homo sapiens, UniProt O95665); test: Radioligand displacement, [3H]NT(8-13)
# neurotensin NTS2, sequence (O95665 whole entry): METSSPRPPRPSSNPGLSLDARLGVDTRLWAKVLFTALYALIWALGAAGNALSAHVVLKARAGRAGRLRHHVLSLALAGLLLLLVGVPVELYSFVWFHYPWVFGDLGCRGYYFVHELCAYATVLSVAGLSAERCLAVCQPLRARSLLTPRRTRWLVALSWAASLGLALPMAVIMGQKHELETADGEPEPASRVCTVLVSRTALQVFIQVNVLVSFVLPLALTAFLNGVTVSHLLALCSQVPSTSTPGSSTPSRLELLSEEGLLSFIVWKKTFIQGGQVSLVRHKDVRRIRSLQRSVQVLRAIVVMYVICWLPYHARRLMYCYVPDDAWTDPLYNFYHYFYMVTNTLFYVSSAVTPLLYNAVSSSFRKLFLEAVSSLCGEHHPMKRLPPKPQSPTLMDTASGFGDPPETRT
# [18] = molecular target: opioid κOR (Homo sapiens, UniProt P41145); test: Radioligand displacement, [3H]diprenorphine
# opioid κOR, sequence (P41145 whole entry): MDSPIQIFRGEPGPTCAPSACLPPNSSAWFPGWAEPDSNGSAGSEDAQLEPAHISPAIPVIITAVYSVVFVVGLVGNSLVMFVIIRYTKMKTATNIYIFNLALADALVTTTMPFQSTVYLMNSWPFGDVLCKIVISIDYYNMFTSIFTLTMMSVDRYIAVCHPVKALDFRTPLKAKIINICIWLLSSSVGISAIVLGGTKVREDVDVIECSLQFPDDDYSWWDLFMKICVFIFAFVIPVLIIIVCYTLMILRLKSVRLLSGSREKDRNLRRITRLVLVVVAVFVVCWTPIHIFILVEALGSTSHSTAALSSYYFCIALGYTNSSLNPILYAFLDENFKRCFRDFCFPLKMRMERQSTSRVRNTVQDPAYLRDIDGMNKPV
# [19] = molecular target: T5, 5-HT1AR; test: PathHunter β-arrestin 2 inhibition assay, stimulated with serotonin
compound,measurement,setting,value
COc1ccccc1OCCNCCCOc1ccc2c(c1)NC(=O)CO2 [ST171],Ki,[1],63 nM
same,Ki,[2],0.044 nM
same,Emax,[3],< 5%
same,Emax,[4],57 ± 7%
same,EC50,"[4]; HEK293AΔGi/o + Gαi2, read-out: EC50 [nM ± SEM], inhibition of cAMP accumulation",4.4 ± 1 nM
same,Cmax,[5],~40 nM
same,Emax,[6],68 ± 3%
same,Emax,[7],57 to 80%
same,EC50,[8],2.5 ± 0.7 nM
same,EC50,[9],1.6 nM
same,Emax,[10],< 10%
same,Ki,[11]; Ki [nM ± SD],18000 ± 9200 nM
same,Ki,[11]; pKi,16300 nM
same,Ki,[12]; Ki [nM ± SD],49000 ± 28000 nM
same,Ki,[12]; pKi,41500 nM
same,Ki,[13]; Ki [nM ± SD],> 50000 nM
same,Ki,[13]; pKi,> 50100 nM
same,Ki,[14]; Ki [nM ± SD],260 nM
same,Ki,[14]; pKi,204 nM
same,Ki,[15]; Ki [nM ± SD],110 ± 60 nM
same,Ki,[15]; pKi,103 nM
same,Ki,[16]; Ki [nM ± SD],1700 ± 350 nM
same,Ki,[16]; pKi,1630 nM
same,Ki,[17]; Ki [nM ± SD],> 50000 nM
same,Ki,[17]; pKi,> 50100 nM
same,Ki,[18]; Ki [nM ± SD],6200 ± 850 nM
same,Ki,[18]; pKi,6280 nM
same,IC50,[19],3.9 ± 0.5 nM
